EC50 data for six compounds are collected here from BindingDB's records for doi:10.1021/ml300471d (Genfit, 2013).

This assay addresses T1, Nuclear receptor ROR-alpha (Homo sapiens, UniProt P35398).
T1 sequence (P35398 whole entry): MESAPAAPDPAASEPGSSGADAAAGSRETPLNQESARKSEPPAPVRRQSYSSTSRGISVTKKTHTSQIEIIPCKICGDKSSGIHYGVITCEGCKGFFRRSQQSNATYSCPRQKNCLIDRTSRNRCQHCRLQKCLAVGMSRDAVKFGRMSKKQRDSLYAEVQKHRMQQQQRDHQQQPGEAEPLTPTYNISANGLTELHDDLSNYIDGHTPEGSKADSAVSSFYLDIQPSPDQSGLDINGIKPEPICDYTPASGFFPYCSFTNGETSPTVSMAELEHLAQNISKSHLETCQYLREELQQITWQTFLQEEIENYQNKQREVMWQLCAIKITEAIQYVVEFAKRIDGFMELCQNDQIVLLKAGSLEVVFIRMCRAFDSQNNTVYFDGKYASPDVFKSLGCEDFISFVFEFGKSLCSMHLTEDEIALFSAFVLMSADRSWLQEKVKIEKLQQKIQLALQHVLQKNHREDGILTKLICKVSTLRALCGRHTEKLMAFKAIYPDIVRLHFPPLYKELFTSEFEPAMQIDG
Nature of the assay: Partial agonist activity at GST-fussed RORalpha (unknown origin) assessed as recruitment of TIF2-BAP protein after overnight incubation by pull down assay.

Turning to `CCOC(=O)C1C(CC)=NC(=O)NC1c1ccc(OCc2ccccc2)c(OC)c1` (stereo unspecified), the EC50 is above 30 µM.
Regarding `CCOC(=O)C1C(C)=NC(=O)N(C)C1c1ccc(OCc2ccccc2)c(OC)c1` (stereo unspecified), the EC50 is above 30 µM.
The value for `CC1=NC(=O)NC(c2ccc(OCc3ccccc3)cc2)C1C(=O)OCC(F)(F)F` (stereo unspecified) was above 30 µM.
As to `COc1cc(C2NC(=O)N=C(C)C2C(=O)OCC(F)(F)F)ccc1OCc1ccccc1` (stereo unspecified), the EC50 is above 30 µM.
The same measure for `COc1cc(C2NC(=O)N=C(C)C2C(=O)OCCSC)ccc1OCc1ccccc1` (stereo unspecified): above 30 µM; for `COc1cc(C2NC(=O)N=C(C)C2C(=O)OCc2ccccc2)ccc1OCc1ccccc1` (stereo unspecified): above 30 µM.
